Laboratory results published in patent publication US6706663B2, “Herbicidal 3-heterocyclic substituted benzisothiazole and benzisoxazole compounds” (Wyeth, priority 2000, dated 2004).

Assays:
[1] = tested on: ABUTH (Abutilon theophrasti); assay: Postemergence herbicidal evaluation; assay type: in vivo, Medic.; details: postemergence
Summary of the method: (§1)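 Seedlings grown about two weeks in flats, sprayed, then kept under standard greenhouse care. Rated visually 4–5 weeks after treatment on a 0–9 scale (stand, vigour, malformation, size, chlorosis, overall appearance) relative to untreated control; repeat tests averaged.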

[2] = tested on: AMBEL (Ambrosia artemisifolia); assay: Postemergence herbicidal evaluation; assay type: in vivo, L.; details: postemergence
Summary of the method: as §1

[3] = tested on: CASOB (Cassia obtusifolia); assay: Postemergence herbicidal evaluation; assay type: in vivo, L.; details: postemergence
Summary of the method: as §1

[4] = tested on: CHEAL (Chenopodium album); assay: Postemergence herbicidal evaluation; assay type: in vivo, L.; details: postemergence
Summary of the method: as §1

[5] = tested on: IPOHE (Ipomoea hederacea); assay: Postemergence herbicidal evaluation; assay type: in vivo, (L.) Jacq.; details: postemergence
Summary of the method: as §1

[6] = tested on: ECHCG (Echinochloa crus-galli); assay: Postemergence herbicidal evaluation; assay type: in vivo, (L.) Beau; details: postemergence
Summary of the method: as §1

ORYSAT (Rice, Tebonnet) [7] = assay: Postemergence herbicidal evaluation; assay type: in vivo, Oryza sativa, (L.) Tebonnet; details: postemergence
Summary of the method: as §1

[8] = tested on: TRZAWR (Wheat, Winter, cv Riband); assay: Postemergence herbicidal evaluation; assay type: in vivo, Triticum aestivum; details: postemergence
Summary of the method: as §1

ZEAMX (Corn, Field) = assay: Postemergence herbicidal evaluation; assay type: in vivo, Zea mays, L.; details: postemergence
Summary of the method: as §1

[9] = tested on: ABUTH (Abutilon theophrasti); assay: Preemergence herbicidal evaluation; assay type: in vivo, Medic.; details: preemergence, rated 4-5 weeks after treatment
[10] = tested on: AMBEL (Ambrosia artemisifolia); assay: Preemergence herbicidal evaluation; assay type: in vivo, L.; details: preemergence, rated 4-5 weeks after treatment
Summary of the method: (§2)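 Scores (0–9) reflect visual comparison with control plants for stand, vigor, malformation, size and chlorosis. Seeds in potting soil received a post-planting spray of compound in aqueous acetone and grew in a greenhouse until assessment 4–5 weeks later.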

[11] = tested on: CASOB (Cassia obtusifolia); assay: Preemergence herbicidal evaluation; assay type: in vivo, L.; details: preemergence, rated 4-5 weeks after treatment
Summary of the method: as §2

[12] = tested on: CHEAL (Chenopodium album); assay: Preemergence herbicidal evaluation; assay type: in vivo, L.; details: preemergence, rated 4-5 weeks after treatment
Summary of the method: as §2

ORYSAT (Rice, Tebonnet) [13] = assay: Preemergence herbicidal evaluation; assay type: in vivo, Oryza sativa, (L.) Tebonnet; details: preemergence, rated 4-5 weeks after treatment
[14] = tested on: TRZAWR (Wheat, Winter, cv Riband); assay: Preemergence herbicidal evaluation; assay type: in vivo, Triticum aestivum; details: preemergence, rated 4-5 weeks after treatment
Summary of the method: as §2

[15] = tested on: ECHORC (Echinochloa oryzoides); assay: Flooded paddy, preemergence weed control; assay type: in vivo, Echinochloa oryzoides (Ard.) Fritsch.; details: rated 3-4 weeks after treatment, 0-9 rating scale
Summary of the method: (§3)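 In this preemergence paddy assay, weed seeds or organs are sown at up to 0.5 cm in silt loam and covered by 1.5–3 cm of water for the full test period. After treatment the pots are kept in a greenhouse, and herbicidal effect is rated 0-9 visually against a control.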

[16] = tested on: SAGPY (Sagittaria pygmaea); assay: Flooded paddy, preemergence weed control; assay type: in vivo, L.; details: rated 3-4 weeks after treatment, 0-9 rating scale
Summary of the method: as §3

ORYSAT (Rice, Tebonnet) [17] = assay: Flooded paddy, post-transplant rice tolerance; assay type: in vivo, Oryza sativa, (L.) Tebonnet; details: flooded paddy, post-transplant rice, rated 3-4 weeks after treatment, 0-9 rating scale
Summary of the method: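 Two ten-day-old seedlings were transplanted into silt loam, flooded and held at 1.5 to 3 cm water above the soil before herbicide treatment. Pots stayed in the greenhouse at that water level. Injury was scored visually on a 0-9 scale versus untreated control.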

## Cn1c(C(F)(F)F)cc(=O)n(-c2ccc3snc(-c4ccoc4)c3c2)c1=O [Compound 83, 3-[3-(3-furyl)-1,2-benzisothiazol-5-yl]-1-methyl-6-(trifluoromethyl)uracil]
[1]; rate 0.0320 kg/ha
  ABUTH herbicidal rating: 6.0
[1]; rate 0.0620 kg/ha
  ABUTH herbicidal rating: 9.0
[2]; rate 0.0320 kg/ha
  AMBEL herbicidal rating: 2.0
[2]; rate 0.0620 kg/ha
  AMBEL herbicidal rating: 6.0
[3]; rate 0.0320 kg/ha
  CASOB herbicidal rating: 4.0
[3]; rate 0.0620 kg/ha
  CASOB herbicidal rating: 6.0
[4]; rate 0.0320 kg/ha
  CHEAL herbicidal rating: 3.0
[4]; rate 0.0620 kg/ha
  CHEAL herbicidal rating: 6.0
[5]; rate 0.0320 kg/ha
  IPOHE herbicidal rating: 2.0
[5]; rate 0.0620 kg/ha
  IPOHE herbicidal rating: 4.0
[6]; rate 0.0320 kg/ha
  ECHCG herbicidal rating: 2.0
[6]; rate 0.0620 kg/ha
  ECHCG herbicidal rating: 3.0
ORYSAT (Rice, Tebonnet) [7]; rate 0.0320 kg/ha
  ORYSAT herbicidal rating: 1.5
ORYSAT (Rice, Tebonnet) [7]; rate 0.0620 kg/ha
  ORYSAT herbicidal rating: 3.0
[8]; rate 0.0320 kg/ha
  TRZAWR herbicidal rating: 2.0
[8]; rate 0.0620 kg/ha
  TRZAWR herbicidal rating: 3.0
ZEAMX (Corn, Field); rate 0.0320 kg/ha
  ZEAMX herbicidal rating: 2.5
ZEAMX (Corn, Field); rate 0.0620 kg/ha
  ZEAMX herbicidal rating: 3.0
[9]; rate 0.0620 kg/ha
  Preemergence herbicidal rating ABUTH: 2.0
[9]; rate 0.1250 kg/ha
  Preemergence herbicidal rating ABUTH: 7.5
[9]; rate 0.2500 kg/ha
  Preemergence herbicidal rating ABUTH: 9.0
[10]; rate 0.0620 kg/ha
  Preemergence herbicidal rating AMBEL: 6.0
[10]; rate 0.1250 kg/ha
  Preemergence herbicidal rating AMBEL: 7.5
[10]; rate 0.2500 kg/ha
  Preemergence herbicidal rating AMBEL: 9.0
[11]; rate 0.0620 kg/ha
  Preemergence herbicidal rating CASOB: 0.0
[11]; rate 0.1250 kg/ha
  Preemergence herbicidal rating CASOB: 0.0
[11]; rate 0.2500 kg/ha
  Preemergence herbicidal rating CASOB: 1.0
[12]; rate 0.0620 kg/ha
  Preemergence herbicidal rating CHEAL: 4.0
[12]; rate 0.1250 kg/ha
  Preemergence herbicidal rating CHEAL: 9.0
[12]; rate 0.2500 kg/ha
  Preemergence herbicidal rating CHEAL: 9.0
ORYSAT (Rice, Tebonnet) [13]; rate 0.0620 kg/ha
  Preemergence herbicidal rating ORYSAT: 0.0
ORYSAT (Rice, Tebonnet) [13]; rate 0.1250 kg/ha
  Preemergence herbicidal rating ORYSAT: 3.5
ORYSAT (Rice, Tebonnet) [13]; rate 0.2500 kg/ha
  Preemergence herbicidal rating ORYSAT: 5.5
[14]; rate 0.0620 kg/ha
  Preemergence herbicidal rating TRZAWR: 3.0
[14]; rate 0.1250 kg/ha
  Preemergence herbicidal rating TRZAWR: 4.0
[14]; rate 0.2500 kg/ha
  Preemergence herbicidal rating TRZAWR: 5.0
[15]; rate 0.0080 kg/ha
  herbicidal rating, ECHORC: 0.0
[15]; rate 0.0320 kg/ha
  herbicidal rating, ECHORC: 6.0
[15]; rate 0.1250 kg/ha
  herbicidal rating, ECHORC: 7.0
[16]; rate 0.0080 kg/ha
  herbicidal rating, SAGPY: 0.0
[16]; rate 0.0320 kg/ha
  herbicidal rating, SAGPY: 0.0
[16]; rate 0.1250 kg/ha
  herbicidal rating, SAGPY: 0.0
ORYSAT (Rice, Tebonnet) [17]; rate 0.0080 kg/ha
  herbicidal rating, ORYSAT (rice tolerance): 0.0
ORYSAT (Rice, Tebonnet) [17]; rate 0.0320 kg/ha
  herbicidal rating, ORYSAT (rice tolerance): 2.0
ORYSAT (Rice, Tebonnet) [17]; rate 0.1250 kg/ha
  herbicidal rating, ORYSAT (rice tolerance): 2.0
